Experimental data as given in publication PMC6915728 (Nature Communications, 2019).
Read-outs that look alike come from different tables or passages of the source.

How the values were obtained:
E. coli BW25113 ΔmlaD = test: MIC, serial broth dilution, mlaD knockout strain vs wild type; assay type: cell-based, Escherichia coli
Experimental: What could be the mechanism behind the antagonistic action of this pathway on membrane- versus intracellular-targeting AMPs? Since MlaD is part of a protein complex, it may lead to a loss-of-function effect upon overexpression[41],[42]. To test this, we asked whether overexpression and deletion of mlaD cause similar changes in susceptibility to a representative set of membrane- and intracellular-targeting AMPs.
Minimum inhibitory concentrations (MIC) were determined with a standard serial broth dilution technique with a minor modification. Specifically, instead of a two-fold dilution series, smaller AMP concentration steps were used (typically 1.2-fold) for two reasons. […] Second, gene overexpressions caused typically only small changes in the MICs of AMPs and therefore higher resolution was required. The protocol was as follows. From a stock solution of an AMP, 12-steps serial dilution was prepared in fresh MS medium in 96-well microtiter plates. Each AMP was represented in 11 different concentrations (3 wells per AMP concentration per strain). Three wells contained only medium to check the growth in the absence of AMP. After overnight growth in MS medium supplemented with chloramphenicol, bacterial strains were diluted 20-fold into fresh MS medium and grown until the cell density reached OD600 ~1. Cells were induced by 100 µM of IPTG and incubated for 1 h at 30 °C with continuous shaking at 300 rpm. Following incubation, approximately half-million cells were inoculated into the wells of the 96-well microtiter plate with a 96‐pin replicator. We used three independent replicates for each strain and the corresponding control. Two rows in the 96-well plate contained only MS medium in order to obtain the background OD value of the medium. Plates were incubated at 30 °C with continuous shaking at 300 rpm. After 20–24 h of incubation, OD600 values were measured in a microplate reader (Biotek Synergy 2).
A mlaD knockout strain of E. coli BW25113 carrying a kanamycin resistance cassette in the position of the gene was selected from the KEIO collection. The resistance marker was removed using plasmid-borne (pFT-A) expression of FLP recombinase leading to excision of the kanamycin resistance cassette. Cassette excision was verified by a polymerase chain reaction using the primers mlaD_del_ver_Fw (5′- […]) and mlaD_del_ver_Rev (5′- […]).
Supplementary Figure 13. […] The bacterial susceptibility of the mutant to AMPs was tested by MIC determination. Growth is shown relative to growth in the absence of the corresponding AMP. The blue line represents the mlaD knockout strain and the orange line represents the control strain (wild-type E. coli BW25113). Error bars indicate the standard errors based on three biological replicates. Source data are provided in the Source Data file.

[1] = test system: bacterial species in which the gene showed activity; conditions: cited from earlier work
[2] = mlaD deletion strain relative to control (E. coli BW25113), 3 replicates each, from optical density values of serial dilution plates, AMP in µg ml-1

GLRKRLRKFRNKIKEKLKKIGQKIQGFVPKLAPRTDY [CAP18, antimicrobial peptide, source rabbit; disrupts cell membrane; cluster C3]
Average relative change in MIC (E. coli BW25113 ΔmlaD; [2]): 2.25

RFRPPIRRPPIRPPFYPPFRPPIRPPIFPPIRPPFRPPLGPFP [BAC5, Bactenecin 5, antimicrobial peptide from bovine neutrophils; cluster C4]
Average relative change in MIC (E. coli BW25113 ΔmlaD; mlaD deletion strain vs control E. coli BW25113, average of 3 replicates): 0.67

RRRPRPPYLPRPRPPPFFPPRLPPRIPPGFPPRFPPRFP [PR39, PR-39, cathelicidin, source pig; cluster C4]
Gene that modulates bacterial susceptibility to the AMP ([1]; Salmonella enterica serovar Typhimurium, ref http://aac.asm.org/content/52/8/2734.full.pdf+html): sbmA

KTKKKFLKKT [PXB, Polymyxin B, from Bacillus polymyxa, purchased from Sigma-Aldrich; disrupts cell membrane; cluster C1]
Gene that modulates bacterial susceptibility to the AMP ([1]; Acinetobacter baumannii, ref http://aac.asm.org/content/54/12/4971.full.pdf+html): lpxA
Gene that modulates bacterial susceptibility to the AMP ([1]; Bordetella pertussis, ref http://www.ncbi.nlm.nih.gov/pmc/articles/PMC4136009/): lgmA, IgmB, IgmC
Gene that modulates bacterial susceptibility to the AMP ([1]; Burkholderia genus, ref http://www.ncbi.nlm.nih.gov/pmc/articles/PMC3143681/, http://www.ncbi.nlm.nih.gov/pmc/articles/PMC1428139/): waaF
Gene that modulates bacterial susceptibility to the AMP ([1]; Campylobacter jejuni, ref http://www.ncbi.nlm.nih.gov/pmc/articles/PMC3270987/): eptC
Gene that modulates bacterial susceptibility to the AMP ([1]; Escherichia coli, Klebsiella pneumoniae, Pseudomonas aeruginosa, Kluyvera ascorbata, ref http://www.ncbi.nlm.nih.gov/pubmed/26603172, http://ac.els-cdn.com/S1473309915005332/1-s2.0-S1473309915005332-main.pdf?_tid=16a7f944-6944-11e6-8a9d-00000aab0f02&acdnat=1471965364_7f481026d1a49114e23adef4a6b4d1a9, https://www.ncbi.nlm.nih.gov/pmc/articles/PMC5119035/): mcr1
Gene that modulates bacterial susceptibility to the AMP ([1]; Escherichia coli, Salmonella sp., Pseudomonas aeruginosa, ref https://ac.els-cdn.com/S0923250806000532/1-s2.0-S0923250806000532-main.pdf?_tid=eafe08ea-d0fa-11e7-b1a6-00000aacb35f&acdnat=1511516356_5b16dbb059dc1cc9bc53dd73456e437d): etk
Gene that modulates bacterial susceptibility to the AMP ([1]; Escherichia coli, ref http://www.jbc.org/content/287/46/38778.full.pdf, http://www.jbc.org/content/early/2007/10/10/jbc.M706172200.full.pdf, https://onlinelibrary.wiley.com/doi/epdf/10.1111/j.1365-2958.2012.08154.x): arnD
Gene that modulates bacterial susceptibility to the AMP ([1]; Helicobacter pylori, ref http://www.ncbi.nlm.nih.gov/pmc/articles/PMC1482963/): lpxE
Gene that modulates bacterial susceptibility to the AMP ([1]; Klebsiella pneumoniae, ref http://iai.asm.org/content/72/12/7107.full.pdf+html): cps
Gene that modulates bacterial susceptibility to the AMP ([1]; Klebsiella pneumoniae, ref http://jac.oxfordjournals.org/content/70/1/75.full.pdf+html, http://embomolmed.embopress.org/content/9/4/430.long): mgrB
Gene that modulates bacterial susceptibility to the AMP ([1]; Klebsiella pneumoniae, ref http://www.ncbi.nlm.nih.gov/pmc/articles/PMC2798511/): acrB
Gene that modulates bacterial susceptibility to the AMP ([1]; Neisseria meningitidis, Neisseria gonorrhoeae, ref http://www.ncbi.nlm.nih.gov/pmc/articles/PMC1196002/): mtrC, mtrD, mtrE
Gene that modulates bacterial susceptibility to the AMP ([1]; Neisseria meningitidis, ref https://www.ncbi.nlm.nih.gov/pmc/articles/PMC1196002/): lptA
Gene that modulates bacterial susceptibility to the AMP ([1]; Neisseria meningitidis, ref https://www.ncbi.nlm.nih.gov/pmc/articles/PMC1196002/pdf/0005-05.pdf): lpxL1
Gene that modulates bacterial susceptibility to the AMP ([1]; Parasutterella excrementihominis, ref https://utmb.influuent.utsystem.edu/en/publications/quorum-sensing-escherichia-coli-regulators-b-and-c-qsebc-a-novel-): qseB (pmrA)
Gene that modulates bacterial susceptibility to the AMP ([1]; Porphyromonas gingivalis, ref https://www.nature.com/articles/ijos200918.pdf?origin=ppub, https://www.ncbi.nlm.nih.gov/pmc/articles/PMC4388331/pdf/nihms-656041.pdf): lpxF
Gene that modulates bacterial susceptibility to the AMP ([1]; Pseudomonas aeruginosa, Salmonella typhimurium, Escherichia coli, ref http://www.sciencemag.org/content/286/5444/1561.full.pdf, http://onlinelibrary.wiley.com/doi/10.1111/j.1365-2958.1995.tb02299.x/abstract, http://www.ncbi.nlm.nih.gov/pmc/articles/PMC50673/pdf/pnas01098-0300.pdf, https://jb.asm.org/content/jb/182/14/4077.full.pdf): phoP (PhoPQ)
Gene that modulates bacterial susceptibility to the AMP ([1]; Pseudomonas aeruginosa, gene colR (ColRS), ref https://www.ncbi.nlm.nih.gov/pmc/articles/PMC4244539/pdf/fmicb-05-00643.pdf, http://aac.asm.org/content/57/5/2204.full.pdf+html): colR (ColRS)
Gene that modulates bacterial susceptibility to the AMP ([1]; Pseudomonas aeruginosa, gene cprR (CprRS), ref https://www.ncbi.nlm.nih.gov/pmc/articles/PMC4244539/pdf/fmicb-05-00643.pdf, http://aac.asm.org/content/57/5/2204.full.pdf+html): cprR (CprRS)
Gene that modulates bacterial susceptibility to the AMP ([1]; Pseudomonas aeruginosa, ref http://aac.asm.org/content/54/8/3372.full.pdf+html, http://aac.asm.org/content/56/12/6212.full.pdf+html, http://aac.asm.org/content/57/5/2204.full.pdf+html): parR (ParR-ParS)
Gene that modulates bacterial susceptibility to the AMP ([1]; Pseudomonas aeruginosa, ref http://jb.asm.org/content/186/2/575.long): pmrB
Gene that modulates bacterial susceptibility to the AMP ([1]; Salmonella enterica serovar Typhimurium, ref http://www.jbc.org/content/279/37/38618.long, https://onlinelibrary.wiley.com/doi/epdf/10.1111/j.1365-2958.2005.04553.x): slyA
Gene that modulates bacterial susceptibility to the AMP ([1]; Salmonella enterica serovar Typhimurium, ref http://www.jbc.org/content/279/37/38618.long): ugtL
Gene that modulates bacterial susceptibility to the AMP ([1]; Salmonella enterica serovar Typhimurium, ref http://www.microbiologyresearch.org/docserver/fulltext/micro/154/2/666.pdf?expires=1487718158&id=id&accname=guest&checksum=D8B884D02A8B2A8619216A48E0826377): yejA
Gene that modulates bacterial susceptibility to the AMP ([1]; Salmonella sp., ref https://www.ncbi.nlm.nih.gov/pmc/articles/PMC2904496/): eptA
Gene that modulates bacterial susceptibility to the AMP ([1]; Salmonella typhimurium, Escherichia coli, ref https://www.ncbi.nlm.nih.gov/pmc/articles/PMC3037666/, https://www.ncbi.nlm.nih.gov/pmc/articles/PMC3837802/pdf/zam7770.pdf): cpxA (CpxA/CpxR)
Gene that modulates bacterial susceptibility to the AMP ([1]; Salmonella typhimurium, gene pmrF (arnT operon), ref http://www.jbc.org/content/287/46/38778.full.pdf): pmrF (arnT operon)
Gene that modulates bacterial susceptibility to the AMP ([1]; Salmonella typhimurium, gene yfbG (arnA), ref http://www.jbc.org/content/287/46/38778.full.pdf): yfbG (arnA)
Gene that modulates bacterial susceptibility to the AMP ([1]; Salmonella typhimurium, ref https://www.ncbi.nlm.nih.gov/pmc/articles/PMC205548/pdf/jbacter00030-0157.pdf): pmrD
Gene that modulates bacterial susceptibility to the AMP ([1]; Staphylococcus aureus, ref http://aac.asm.org/content/51/8/2679.full.pdf+html): graR(GraRS)
Gene that modulates bacterial susceptibility to the AMP ([1]; Vibrio cholerae, ref http://pubs.acs.org/doi/pdf/10.1021/cb500438x): almE, almF, almG
Gene that modulates bacterial susceptibility to the AMP ([1]; Yersinia sp., ref http://www.helsinki.fi/yersinia/pdf_own/Bengo_MolMic_2000_37_67.pdf): rosA
Gene that modulates bacterial susceptibility to the AMP [1]: rcp (pagP) and pmm and bveA (BMEII0681)
Gene that modulates bacterial susceptibility to the AMP ([1]; pathogenic or commensal Enterobacteriaceae species, gene rcsB, ref https://www.ncbi.nlm.nih.gov/pmc/articles/PMC2895427/pdf/nihms212407.pdf): rcsB
Gene that modulates bacterial susceptibility to the AMP ([1]; pathogenic or commensal Enterobacteriaceae species, gene rcsC, ref https://www.ncbi.nlm.nih.gov/pmc/articles/PMC2895427/pdf/nihms212407.pdf): rcsC
Gene that modulates bacterial susceptibility to the AMP ([1]; pathogenic or commensal Enterobacteriaceae species, gene rcsD, ref https://www.ncbi.nlm.nih.gov/pmc/articles/PMC2895427/pdf/nihms212407.pdf): rcsD

GIGKFLKKAKKFGKAFVKILKK [PEX, Pexiganan, synthetic Magainin derivative; disrupts cell membrane; cluster C2]
Average relative change in MIC (E. coli BW25113 ΔmlaD; [2]): 1.58
